Legend:
NCI-H1975 tumors = conditions: for in vivo effect on tumor growth: s.c. NCI-H1975 tumors, athymic mice, p.o. (FIG. 3)
Protocol: Non small cell lung carcinoma cell lines with amplified EGFR, but refractory to EGFR inhibition therapy, are valuable models to test the sensitivity of PI3K inhibitors like the compounds of formula I in such genetic background. […] The in vivo antitumor activity of PI3K inhibitors like the compounds of formula I is tested against this EGFR driven and inhibitor resistant tumor model (FIG. 3).

NCI-H1975 cell line = assay: proliferation assay in EGFR inhibitor resistant NCI-H1975 cell line; type: cell-based; conditions: Homo sapiens; NCI-H1975 cell line (HER1 T790M)
NCI-H358 cell line = assay: proliferation assay (methylene blue assay) with NCI-H358 tumor cells; type: cell-based; conditions: Homo sapiens, read-out: Growth Inhibitory 50 (GI50)
BT474 tumors = assay: antitumor activity against s.c. BT474 xenografts; type: in vivo, mice; conditions: BT474 subcutaneous xenografts, 45 mg/kg, po, once per day (FIG. 6)
Source text: (§1) ErB-B2 (HER2) is often overexpressed in breast and ovarian cell lines.

[1] = tested on: panel of breast tumor cell lines; assay: antiproliferative activity in a panel of breast cancer cell lines (Methylene blue viable cell detection assay); type: cell-based, human
Protocol: The indicated cell lines are incubated with increasing amount of Compound A, and effect on the proliferation assessed with a Methylene blue viable cell detection assay. The cell lines indicated with a red asterisk are the ones in which cell death is observed (i.e. for which the absorbance observed for treated cells was lower than the original inoculum).
as §1

Row | Structure (SMILES) | in vivo effect on tumor growth (NCI-H1975 tumors) | GI50 (NCI-H1975 cell line) [nM] | GI50 (NCI-H358 cell line) [nM] | tolerability (body weight, control vs treatment groups) (NCI-H1975 tumors; mouse, in vivo) | in vivo antitumor effect (BT474 tumors) | GI50 ([1]; Homo sapiens, panel of breast tumor cell lines containing or not ErbB2 amplification, read-out: median GI50) [nM] | cell death ([1]; cell lines that overexpressed ErbB2 (FIG. 5))
1 | C#Cc1cccc(Nc2ncnc3cc(OCCOC)c(OCCOC)cc23)c1 [erlotinib, reference compound] | no significant inhibition on tumor growth |  |  |  |  |  | 
2 | Cn1c(=O)n(-c2ccc(C(C)(C)C#N)cc2)c2c3cc(-c4cnc5ccccc5c4)ccc3ncc21 [Compound A, 2-methyl-2-[4-(3-methyl-2-oxo-8-quinolin-3-yl-2,3-dihydro-imidazo[4,5-c]quinolin-1-yl)-phenyl]-propionitrile] | causes in vivo tumor growth inhibition | 11.4 | 31 | well tolerated | tumor regression | 11.1 | induces cell death
3 | CCN1CCN(Cc2ccc(-c3cc4c(N[C@H](C)c5ccccc5)ncnc4[nH]3)cc2)CC1 [NVP-AEE788, reference compound] | no significant inhibition on tumor growth |  |  |  |  |  | 

— patent US20100196365A1, “USE OF IMIDAZOQUINOLINES FOR THE TREATMENT OF EGFR DEPENDENT DISEASES OR DISEASES THAT HAVE ACQUIRED RESISTANCE TO AGENTS THAT TARGET EGFR FAMILY MEMBERS” (priority 2007, published 2010)
